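Each compound was tested at five concentrations against cells in 96-well plates for 48 hours. The concentration for 50% growth inhibition is given as GI50. TGI marks complete inhibition of growth.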
What was measured:
Assay in all cases: NCI-60 cell line screen, 48 h
SK-MEL-2 melanoma = tested on: SK-MEL-2 melanoma
HOP-62 NSCLC = tested on: HOP-62 NSCLC
SF-539 CNS = tested on: SF-539 CNS
UACC-62 melanoma = tested on: UACC-62 melanoma
M14 melanoma = tested on: M14 melanoma
DU-145 prostate = tested on: DU-145 prostate
SNB-19 CNS = tested on: SNB-19 CNS
SR leukemia = tested on: SR leukemia
NCI/ADR-RES ovarian = tested on: NCI/ADR-RES ovarian
HOP-92 NSCLC = tested on: HOP-92 NSCLC
U251 CNS = tested on: U251 CNS
ACHN renal = tested on: ACHN renal
MOLT-4 leukemia = tested on: MOLT-4 leukemia
SK-MEL-5 melanoma = tested on: SK-MEL-5 melanoma
OVCAR-5 ovarian = tested on: OVCAR-5 ovarian
A549 NSCLC = tested on: A549 NSCLC
MDA-MB-435 = tested on: MDA-MB-435
RPMI-8226 leukemia = tested on: RPMI-8226 leukemia
MDA-MB-231 breast = tested on: MDA-MB-231 breast
UACC-257 melanoma = tested on: UACC-257 melanoma
NCI-H226 lung = tested on: NCI-H226 lung
SN12C renal = tested on: SN12C renal
SNB-75 CNS = tested on: SNB-75 CNS
HL-60(TB) leukemia = tested on: HL-60(TB) leukemia
SK-OV-3 ovarian = tested on: SK-OV-3 ovarian
HT29 colon = tested on: HT29 colon
MALME-3M melanoma = tested on: MALME-3M melanoma
CAKI-1 renal = tested on: CAKI-1 renal
BT-549 breast = tested on: BT-549 breast
COLO 205 colon = tested on: COLO 205 colon
UO-31 renal = tested on: UO-31 renal
NCI-H522 lung = tested on: NCI-H522 lung
HCT-15 colon = tested on: HCT-15 colon
NCI-H460 lung = tested on: NCI-H460 lung
KM12 colon = tested on: KM12 colon
TK-10 renal = tested on: TK-10 renal
SF-295 CNS = tested on: SF-295 CNS
SW-620 colon = tested on: SW-620 colon
OVCAR-8 ovarian = tested on: OVCAR-8 ovarian
NCI-H23 lung = tested on: NCI-H23 lung
SF-268 CNS = tested on: SF-268 CNS
SK-MEL-28 melanoma = tested on: SK-MEL-28 melanoma
A498 renal = tested on: A498 renal
HCT-116 colon = tested on: HCT-116 colon
IGROV1 ovarian = tested on: IGROV1 ovarian
CCRF-CEM leukemia = tested on: CCRF-CEM leukemia
MCF7 breast = tested on: MCF7 breast
786-0 renal = tested on: 786-0 renal
T-47D breast = tested on: T-47D breast
K-562 leukemia = tested on: K-562 leukemia
HCC-2998 colon = tested on: HCC-2998 colon
LOX IMVI melanoma = tested on: LOX IMVI melanoma
PC-3 prostate = tested on: PC-3 prostate
EKVX NSCLC = tested on: EKVX NSCLC
OVCAR-4 ovarian = tested on: OVCAR-4 ovarian
OVCAR-3 ovarian = tested on: OVCAR-3 ovarian
HS 578T breast = tested on: HS 578T breast

Which GI50 (SK-MEL-2 melanoma) does the source give for `COc1cc(C(=O)c2cc(C)c3[nH]c4ccc(Cl)cc4c3c2C)cc(OC)c1OC` here?
The GI50 was 0.575 µM.

And the TGI (SK-MEL-2 melanoma)?
Its TGI is 17.3 µM.

And the GI50 (HOP-62 NSCLC)?
The GI50 was 0.0756 µM.

What about the TGI (HOP-62 NSCLC) of the same compound?
The TGI was 19.5 µM.

What about the GI50 (SF-539 CNS) of the same compound?
Its GI50 is 0.0284 µM.

And the TGI (SF-539 CNS)?
The TGI was 0.461 µM.

What about the GI50 (UACC-62 melanoma) of the same compound?
The GI50 was 0.0376 µM.

What about the TGI (UACC-62 melanoma) of the same compound?
Its TGI is 8.4 µM.

And the GI50 (M14 melanoma)?
The GI50 was 0.033 µM.

What about the TGI (M14 melanoma) of the same compound?
The TGI was 12.4 µM.

What about the GI50 (DU-145 prostate) of the same compound?
Its GI50 is 0.0459 µM.

And the TGI (DU-145 prostate)?
Its TGI is 3.6 µM.

What about the GI50 (SNB-19 CNS) of the same compound?
The GI50 was 0.0418 µM.

And the TGI (SNB-19 CNS)?
Its TGI is 19.2 µM.

What about the GI50 (SR leukemia) of the same compound?
Its GI50 is 0.0493 µM.

And the TGI (SR leukemia)?
The TGI was 97.1 µM.

What about the GI50 (NCI/ADR-RES ovarian) of the same compound?
Its GI50 is 0.032 µM.

What about the TGI (NCI/ADR-RES ovarian) of the same compound?
The TGI was 11.9 µM.

And the GI50 (HOP-92 NSCLC)?
The GI50 was 0.156 µM.

And the TGI (HOP-92 NSCLC)?
The TGI was 4.65 µM.

What about the GI50 (U251 CNS) of the same compound?
The GI50 was 0.0425 µM.

What about the TGI (U251 CNS) of the same compound?
Its TGI is 15 µM.

And the GI50 (ACHN renal)?
Its GI50 is 0.0593 µM.

What about the TGI (ACHN renal) of the same compound?
The TGI was 12.8 µM.

What about the GI50 (MOLT-4 leukemia) of the same compound?
The GI50 was 0.046 µM.

What about the TGI (MOLT-4 leukemia) of the same compound?
Its TGI is over 47.4 µM.

And the GI50 (SK-MEL-5 melanoma)?
The GI50 was 0.0361 µM.

What about the TGI (SK-MEL-5 melanoma) of the same compound?
Its TGI is 0.196 µM.

And the GI50 (OVCAR-5 ovarian)?
The GI50 was 0.0635 µM.

And the TGI (OVCAR-5 ovarian)?
Its TGI is 18 µM.

And the GI50 (A549 NSCLC)?
Its GI50 is 0.134 µM.

And the TGI (A549 NSCLC)?
Its TGI is 28.7 µM.

What about the GI50 (MDA-MB-435) of the same compound?
The GI50 was 0.0249 µM.

What about the TGI (MDA-MB-435) of the same compound?
Its TGI is 0.0733 µM.

And the GI50 (RPMI-8226 leukemia)?
Its GI50 is 0.0421 µM.

And the TGI (RPMI-8226 leukemia)?
Its TGI is 18.6 µM.

What about the GI50 (MDA-MB-231 breast) of the same compound?
Its GI50 is 0.0496 µM.

What about the TGI (MDA-MB-231 breast) of the same compound?
The TGI was 2.32 µM.

What about the GI50 (UACC-257 melanoma) of the same compound?
Its GI50 is 4.28 µM.

What about the TGI (UACC-257 melanoma) of the same compound?
The TGI was 32.3 µM.

And the GI50 (NCI-H226 lung)?
The GI50 was 0.679 µM.

And the TGI (NCI-H226 lung)?
Its TGI is 18.3 µM.

And the GI50 (SN12C renal)?
The GI50 was 0.0509 µM.

And the TGI (SN12C renal)?
The TGI was 13.2 µM.

And the GI50 (SNB-75 CNS)?
Its GI50 is 0.0254 µM.

What about the TGI (SNB-75 CNS) of the same compound?
Its TGI is 3.96 µM.

What about the GI50 (HL-60(TB) leukemia) of the same compound?
The GI50 was 0.0279 µM.

What about the TGI (HL-60(TB) leukemia) of the same compound?
Its TGI is 0.0901 µM.

And the GI50 (SK-OV-3 ovarian)?
Its GI50 is 0.666 µM.

What about the TGI (SK-OV-3 ovarian) of the same compound?
Its TGI is 34.7 µM.

What about the GI50 (HT29 colon) of the same compound?
The GI50 was 0.359 µM.

And the TGI (HT29 colon)?
Its TGI is 10.7 µM.

What about the GI50 (MALME-3M melanoma) of the same compound?
Its GI50 is 0.0791 µM.

And the TGI (MALME-3M melanoma)?
The TGI was 15.3 µM.

What about the GI50 (CAKI-1 renal) of the same compound?
Its GI50 is 0.0521 µM.

What about the TGI (CAKI-1 renal) of the same compound?
The TGI was 12.5 µM.

What about the GI50 (BT-549 breast) of the same compound?
Its GI50 is 0.0423 µM.

And the TGI (BT-549 breast)?
Its TGI is 4.55 µM.

What about the GI50 (COLO 205 colon) of the same compound?
The GI50 was 0.517 µM.

What about the TGI (COLO 205 colon) of the same compound?
Its TGI is 2.36 µM.

What about the GI50 (UO-31 renal) of the same compound?
The GI50 was 0.12 µM.

What about the TGI (UO-31 renal) of the same compound?
Its TGI is 11.5 µM.

What about the GI50 (NCI-H522 lung) of the same compound?
The GI50 was 0.0291 µM.

And the TGI (NCI-H522 lung)?
Its TGI is 1.95 µM.

What about the GI50 (HCT-15 colon) of the same compound?
The GI50 was 0.0355 µM.

And the TGI (HCT-15 colon)?
The TGI was 4.25 µM.

And the GI50 (NCI-H460 lung)?
Its GI50 is 0.035 µM.

And the TGI (NCI-H460 lung)?
The TGI was 3.74 µM.

And the GI50 (KM12 colon)?
Its GI50 is 0.0531 µM.

And the TGI (KM12 colon)?
Its TGI is 2.4 µM.

What about the GI50 (TK-10 renal) of the same compound?
The GI50 was 2.71 µM.

What about the TGI (TK-10 renal) of the same compound?
Its TGI is 29.4 µM.

What about the GI50 (SF-295 CNS) of the same compound?
The GI50 was 0.0284 µM.

What about the TGI (SF-295 CNS) of the same compound?
Its TGI is 0.303 µM.

And the GI50 (SW-620 colon)?
Its GI50 is 0.0415 µM.

What about the TGI (SW-620 colon) of the same compound?
The TGI was 24.8 µM.

What about the GI50 (OVCAR-8 ovarian) of the same compound?
The GI50 was 0.0439 µM.

And the TGI (OVCAR-8 ovarian)?
The TGI was 10.7 µM.

And the GI50 (NCI-H23 lung)?
The GI50 was 0.0444 µM.

And the TGI (NCI-H23 lung)?
Its TGI is 7.43 µM.

And the GI50 (SF-268 CNS)?
Its GI50 is 0.182 µM.

And the TGI (SF-268 CNS)?
Its TGI is 16.2 µM.

And the GI50 (SK-MEL-28 melanoma)?
Its GI50 is 1.44 µM.

And the TGI (SK-MEL-28 melanoma)?
Its TGI is 17 µM.

What about the GI50 (A498 renal) of the same compound?
Its GI50 is 0.0242 µM.

What about the TGI (A498 renal) of the same compound?
Its TGI is 0.0805 µM.

What about the GI50 (HCT-116 colon) of the same compound?
Its GI50 is 0.0376 µM.

What about the TGI (HCT-116 colon) of the same compound?
Its TGI is 3.19 µM.

And the GI50 (IGROV1 ovarian)?
Its GI50 is 0.0438 µM.

What about the TGI (IGROV1 ovarian) of the same compound?
The TGI was 12.3 µM.

And the GI50 (CCRF-CEM leukemia)?
Its GI50 is 0.0399 µM.

What about the TGI (CCRF-CEM leukemia) of the same compound?
The TGI was over 100 µM.

And the GI50 (MCF7 breast)?
The GI50 was 0.0352 µM.

What about the TGI (MCF7 breast) of the same compound?
Its TGI is 13.2 µM.

And the GI50 (786-0 renal)?
Its GI50 is 0.0634 µM.

And the TGI (786-0 renal)?
The TGI was 6.19 µM.

And the GI50 (T-47D breast)?
Its GI50 is 1.84 µM.

What about the TGI (T-47D breast) of the same compound?
The TGI was 39.3 µM.

And the GI50 (K-562 leukemia)?
The GI50 was 0.035 µM.

And the TGI (K-562 leukemia)?
The TGI was over 100 µM.

And the GI50 (HCC-2998 colon)?
Its GI50 is 0.0548 µM.

What about the TGI (HCC-2998 colon) of the same compound?
The TGI was 5.29 µM.

What about the GI50 (LOX IMVI melanoma) of the same compound?
The GI50 was 0.0384 µM.

What about the TGI (LOX IMVI melanoma) of the same compound?
Its TGI is 5.52 µM.

What about the GI50 (PC-3 prostate) of the same compound?
The GI50 was 0.146 µM.

What about the TGI (PC-3 prostate) of the same compound?
The TGI was 13.7 µM.

And the GI50 (EKVX NSCLC)?
The GI50 was 0.254 µM.

What about the TGI (EKVX NSCLC) of the same compound?
Its TGI is 23.4 µM.

What about the GI50 (OVCAR-4 ovarian) of the same compound?
Its GI50 is 1.16 µM.

What about the TGI (OVCAR-4 ovarian) of the same compound?
Its TGI is 27.2 µM.

And the GI50 (OVCAR-3 ovarian)?
Its GI50 is 0.0329 µM.

What about the TGI (OVCAR-3 ovarian) of the same compound?
Its TGI is 7.16 µM.

What about the GI50 (HS 578T breast) of the same compound?
Its GI50 is 0.0364 µM.

And the TGI (HS 578T breast)?
The TGI was 10.6 µM.

Reference: PubChem BioAssay (NCI)
